IC50 data for 49 compounds are collected here from US20260347365A1, “COMPOUND FOR REGULATING AND CONTROLLING 15-PGDH ACTIVITY AND PREPARATION METHOD THEREFOR” (SCINNOHUB PHARMACEUTICAL CO.,LTD, priority 2023, published 2026).

Molecules are shown by their SMILES.

For the first experiment, the target named is T1, 15-PGDH (Homo sapiens, UniProt P15428).
T1 construct: purchased Sino Biological Inc. 11205-H08E
T1 sequence (P15428 1-266): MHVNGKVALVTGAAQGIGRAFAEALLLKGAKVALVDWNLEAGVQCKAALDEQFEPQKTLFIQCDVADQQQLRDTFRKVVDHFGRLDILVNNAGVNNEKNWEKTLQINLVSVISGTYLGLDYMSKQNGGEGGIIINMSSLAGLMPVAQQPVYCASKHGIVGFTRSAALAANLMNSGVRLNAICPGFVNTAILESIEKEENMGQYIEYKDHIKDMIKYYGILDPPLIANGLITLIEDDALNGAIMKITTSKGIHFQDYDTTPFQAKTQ
In words: Detection of Activity of 15-PGDH Kinase (inhibition of 15-PGDH enzyme).
Conditions: not given
Format: biochemical. The procedure:
• a. A solution of pH 7.5 containing 50 mM Tris-HCl and 0.01% Tween 20 was prepared with ultrapure water as a reaction buffer; • b. a 10 mM mother liquor of the compound to be tested was prepared with DMSO, and then the reaction buffer was used to dilute the mother liquor of the compound to be tested to obtain solution 1 of the compound to be tested at a concentration of 4000 nM, and then the solution 1 of the compound to be tested was serially diluted into solutions 2-10 of the compound to be tested at 9 concentrations with a gradient difference of three-fold. 5 μL of each concentration of solutions 1-10 of the compound to be tested was respectively taken and added into a 384-well plate as test wells; • c. 5 μL of the reaction buffer was added to the 384-well plate as positive control and blank control wells; • d. the reaction buffer was used to prepare a 15-PGDH protein solution at a concentration of 5 ng/μL, 5 μL of the 15-PGDH protein solution was taken and added to the test wells and positive control wells, and 5 μL of the reaction buffer was added to the blank control wells at the same time, then the plate was centrifuged at 2000 rpm for 30 seconds; • e. the reaction buffer was used to prepare 5 mM β-NAD and 2 mM PGF2α, respectively, which were mixed at 1:1 by volume to obtain a substrate mixture, 10 μL of the substrate mixture was taken and added to the test wells, positive control wells and blank control wells to start the reaction; • f. the fluorescence signal value (Ex/Em=340/450) of each well was detected continuously by using a multifunctional microplate reader.
• a) Continuous fluorescence signal values were analyzed by using the “kinetic calculations-slope calculation method” in the PHERAstar Data analysis software to obtain the slope of each test well; • b) the inhibition rate % was calculated by using the following formula:
inhibition rate %=[1−(slope of test well-signal value of positive control well)/(signal value of blank control well-average signal value of positive control well)]×100%. • c) calculation of IC50 and plotting of inhibition rate-dose curves: IC50 values were calculated by fitting compound concentrations and corresponding inhibition rates with a nonlinear regression (dose response-variable slope) via using GraphPad Prism 6.0.
The formula is shown below: Y=Bottom+(Top−Bottom)/(1+10^((Log IC50−X)*HillSlope)), wherein X is a log value of a concentration of the compound, and Y is inhibition rate %.
Consider `O=C(c1ccc2c(c1)nc(-c1ccc3ocnc3c1)c1nccn12)N1CCCCC1` [Example 2, (4-(benzo[d]oxazol-5-yl)imidazo[1,2-a]quinoxalin-7-yl)(piperidin-1-yl)methanone], for which the IC50 (in general, the midpoint of a concentration-inhibition curve) fell in the range of 2 to 5 nM.
Turning to `Cc1cnc2c(-c3ccc4c(c3)CN(C)C4=O)nc3cc(C(=O)N4CCCCC4)ccc3n12` [Example 3, 2-methyl-5-(1-methyl-7-(piperidine-1-carbonyl)imidazo[1,2-a]quinoxalin-4-yl) isoindolin-1-one], the IC50 lay in the range of 2 to 5 nM.
On the same count and under the same terms, the result for `CN1Cc2cc(C3=Nc4cc(C(=O)N5CCCCC5)ccc4N4CC5(CC5)N=C34)ccc2C1=O` [Example 4, 2-methyl-5-(7′-(piperidine-1-carbonyl)-1′H-spiro[cyclopropane-1,2′-imidazo[1,2-a]quinoxaline]-4′-yl) isoindolin-1-one] reads under 2 nM; that for `CN1Cc2cc(-c3nc4cc(C(=O)N5CCCCC5)ccc4n4cnnc34)ccc2C1=O` [Example 5, 2-methyl-5-(7-(piperidine-1-carbonyl)-[1,2,4]triazolo[4,3-a]quinoxalin-4-yl) isoindolin-1-one], 5 to 10 nM.

The experiment is the same for the next values; noted with them: class symbols; substrates β-NAD and PGF2α, pH 7.5, fluorescence Ex/Em=340/450; read-out: IC50.
On to `CN1Cc2cc(-c3nc4cc(C(=O)N5CCCCC5)ccc4n4ccnc34)ccc2C1=O` [Example 6], for which the IC50 was under 2 nM.
Turning to `Nc1ncc(-c2nc3cc(C(=O)N4CCCCC4)ccc3n3ccnc23)cn1` [Example 7], the IC50 lay within 2 to 5 nM.
As for `O=C(c1ccc2c(c1)nc(-c1cncnc1)c1nccn12)N1CCCCC1` [Example 8], the IC50 lay within 5 to 10 nM.
On the same count and under the same terms, the value for `O=C(c1ccc2c(c1)nc(-c1ccc3ncsc3c1)c1nccn12)N1CCCCC1` [Example 10] was 5 to 10 nM; that for `O=C(c1ccc2c(c1)nc(-c1ccccc1)c1nccn12)N1CCC(F)(F)CC1` [Example 16] was 100 to 1000 nM; that for `O=C(c1ccc2c(c1)nc(-c1ccccc1)c1nccn12)N1CCOCC1` [Example 17] was 100 to 1000 nM.
The same measure, in the same setting: the result for `Cn1cc(-c2nc3cc(C(=O)N4CCCCC4)ccc3n3ccnc23)ccc1=O` [Example 18] reads 10 to 20 nM; that for `O=C(c1ccc2c(c1)nc(-c1ccc3nccnc3c1)c1nccn12)N1CCCCC1` [Example 19], 5 to 10 nM.
On the same count and under the same terms, the value for `Cn1ccc2cc(-c3nc4cc(C(=O)N5CCCCC5)ccc4n4ccnc34)ccc2c1=O` [Example 20] was under 2 nM; that for `Cn1cc2cc(-c3nc4cc(C(=O)N5CCCCC5)ccc4n4ccnc34)ccc2n1` [Example 21] was under 2 nM.
`Cn1ccc2cc(-c3nc4cc(C(=O)N5CCCCC5)ccc4n4ccnc34)cnc21` [Example 23]: the IC50 was 2 to 5 nM.
Regarding `Cn1ncc2cc(-c3nc4cc(C(=O)N5CCCCC5)ccc4n4ccnc34)ccc21` [Example 24], the IC50 was in the range of 2 to 5 nM.
On the same count and under the same terms, the value for `O=C(c1ccc2c(c1)nc(-c1ccc3ncnn3c1)c1nccn12)N1CCCCC1` [Example 27] was 5 to 10 nM; that for `O=C(c1ccc2c(c1)nc(-c1ccc3[nH]c(=O)[nH]c3c1)c1nccn12)N1CCCCC1` [Example 29] was under 2 nM; that for `CCOC(=O)c1cn2cc(-c3nc4cc(C(=O)N5CCCCC5)ccc4n4ccnc34)ccc2n1` [Example 30] was 5 to 10 nM.
On to `O=C1OCc2cc(-c3nc4cc(C(=O)N5CCCCC5)ccc4n4ccnc34)ccc21` [Example 31], for which the IC50 is 5 to 10 nM.
Still for that read-out and setting: the result for `O=C(O)c1ccc(-c2nc3cc(C(=O)N4CCCCC4)ccc3n3ccnc23)cc1` [Example 33] reads under 2 nM.
Consider `Cc1cn2c(n1)c(-c1ccc3c(c1)CN(C)C3=O)nc1cc(C(=O)N3CCCCC3)ccc12` [Example 34], for which the IC50 is under 2 nM.
In the case of `CN1Cc2cc(C3=Nc4cc(C(=O)N5CCCCC5)ccc4N4CCN=C34)ccc2C1=O` [Example 35], the IC50 was under 2 nM.
As for `CC1CN2C(=N1)C(c1ccc3c(c1)CN(C)C3=O)=Nc1cc(C(=O)N3CCCCC3)ccc12` (stereo not shown) [Example 36], the IC50 was under 2 nM.
The same measure, in the same setting: the result for `CC1CN=C2C(c3ccc4c(c3)CN(C)C4=O)=Nc3cc(C(=O)N4CCCCC4)ccc3N21` (stereo not shown) [Example 37] reads under 2 nM.
Take `CN1Cc2cc(-c3nc4cc(C(=O)N5CCC(F)CC5)ccc4n4ccnc34)ccc2C1=O` [Example 38]: the IC50 was 2 to 5 nM.
Take `CN1Cc2cc(-c3nc4cc(C(=O)N5CCCC5)ccc4n4ccnc34)ccc2C1=O` [Example 40]: the IC50 was 50 to 100 nM.
With `CN1Cc2cc(C3=Nc4cc(C(=O)N5CCCCC5)ccc4N4CC(C)(C)N=C34)ccc2C1=O` [Example 41], the IC50 was under 2 nM.
The same measure, in the same setting: the result for `CCOC(=O)c1ccc(-c2nc3cc(C(=O)N4CCCCC4)ccc3n3ccnc23)cc1` [Example 42] reads 5 to 10 nM; that for `CC(C)C1CN2C(=N1)C(c1ccc3c(c1)CN(C)C3=O)=Nc1cc(C(=O)N3CCCCC3)ccc12` (stereo not shown) [Example 43], 5 to 10 nM.
Turning to `CC(C)CC1CN2C(=N1)C(c1ccc3c(c1)CN(C)C3=O)=Nc1cc(C(=O)N3CCCCC3)ccc12` (stereo not shown) [Example 44], the IC50 was in the range of 5 to 10 nM.
For the compound `CN1Cc2cc(C3=Nc4cc(C(=O)N5CCCCC5)ccc4N4CC(C(C)(C)C)N=C34)ccc2C1=O` (stereo not shown) [Example 45], the IC50 is 5 to 10 nM.
Still for that read-out and setting: the result for `CN1Cc2cc(-c3nc4cc(C(=O)N5CCCCC5)ccc4c4nccn34)ccc2C1=O` [Example 46, 2-methyl-5-(8-(piperidine-1-carbonyl)imidazo[1,2-c]quinazolin-5-yl) isoindolin-1-one] reads 2 to 5 nM.
Turning to `O=C(c1ccc2c(c1)nc(-c1ccc3c(c1)CCN3)n1ccnc21)N1CCCCC1` [Example 47], the IC50 was 2 to 5 nM.
Still for that read-out and setting: the result for `N#Cc1ccc(-c2nc3cc(C(=O)N4CCCCC4)ccc3c3nccn23)cn1` [Example 50] reads 5 to 10 nM; that for `CN(C)c1ncc(-c2nc3cc(C(=O)N4CCCCC4)ccc3c3nccn23)cn1` [Example 52], 5 to 10 nM; that for `Cn1cc(-c2nc3cc(C(=O)N4CCCCC4)ccc3c3nccn23)cn1` [Example 53], 2 to 5 nM.
The same measure, in the same setting: the result for `O=C(c1ccc2c(c1)nc(-c1ccc3ncsc3c1)n1ccnc21)N1CCCCC1` [Example 54] reads under 2 nM.
Still for that read-out and setting: the result for `Nc1ncc(-c2nc3cc(C(=O)N4CCCCC4)ccc3c3nccn23)cn1` [Example 56] reads under 2 nM.
For `O=C(c1ccc2c(c1)nc(-c1cccnc1)n1ccnc21)N1CCCCC1` [Example 57], the IC50 was 2 to 5 nM.
As for `O=C(c1ccc2c(c1)nc(-c1ccc3nccn3c1)n1ccnc21)N1CCCCC1` [Example 59], the IC50 fell in the range of 5 to 10 nM.
With `O=C(c1ccc2c(c1)nc(-c1ccc3c(c1)OCCO3)n1ccnc21)N1CCCCC1` [Example 60], the IC50 is 5 to 10 nM.
For the compound `Cn1ccc(-c2nc3cc(C(=O)N4CCCCC4)ccc3c3nccn23)cc1=O` [Example 61], the half-inhibitory concentration (IC50) is 5 to 10 nM.
For the compound `Cn1ccc2cc(-c3nc4cc(C(=O)N5CCCCC5)ccc4c4nccn34)cnc21` [Example 62], the IC50 is under 2 nM.
The same measure, in the same setting: the value for `O=C(c1ccc2c(c1)nc(-c1ccc3nccnc3c1)n1ccnc21)N1CCCCC1` [Example 67] was 2 to 5 nM; that for `Cn1ncc2cc(-c3nc4cc(C(=O)N5CCCCC5)ccc4c4nccn34)ccc21` [Example 69] was 2 to 5 nM.
The same measure, in the same setting: the result for `CCOC(=O)c1cc2cc(-c3nc4cc(C(=O)N5CCCCC5)ccc4c4nccn34)ccc2[nH]1` [Example 72] reads 5 to 10 nM; that for `Cn1ccc2cc(-c3nc4cc(C(=O)N5CCCCC5)ccc4c4nccn34)ccc2c1=O` [Example 73], under 2 nM.
On the same count and under the same terms, the value for `CN1Cc2cc(-c3nc4ccc(C(=O)N5CCCCC5)cc4c4nccn34)ccc2C1=O` [Example 75] was 100 to 1000 nM.
